Reference: PubChem BioAssay AID248 (DTP/NCI, 2004)
“And” between values parts separate entries of the source, which are not always exact repeats. Equal entries are not always repeated. Toxic doses and inconclusive results are not listed. Cut-off read from the data, not from the text of the source: active = T/C of 150% or more; inactive = T/C below 125%.

Test system: L1210 leukemia ip in BDF1 mice, survival T/C
Experiment: NCI In Vivo Anticancer Drug Screen. Data for tumor model L1210 Leukemia (intraperitoneal) in B6D2F1 (BDF1) mice
Settings: endpoint: mean survival time, higher = longer survival
Summary of the method: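 Antitumor effect is assessed in tumor-bearing animals. Survival in the compound arm is compared with a vehicle-dosed control arm and expressed as their quotient.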

[1] = dose: 100.0 mg/kg/injection, schedule: Q01DX009 (ip), vehicle: Klucel (hydroxypropylcellulose) (HPC)
[2] = dose: 100.0 mg/kg/injection, schedule: Q04DX003 (ip), vehicle: Klucel (hydroxypropylcellulose) (HPC)
[3] = dose: 200.0 mg/kg/injection, schedule: Q01DX009 (ip), vehicle: Klucel (hydroxypropylcellulose) (HPC)
[4] = dose: 200.0 mg/kg/injection, schedule: Q04DX003 (ip), vehicle: Klucel (hydroxypropylcellulose) (HPC)
[5] = dose: 400.0 mg/kg/injection, schedule: Q04DX003 (ip), vehicle: Klucel (hydroxypropylcellulose) (HPC)

Measured: T/C

Cc1noc(C)c1CON
inactive: dose: 75.0 mg/kg/injection, schedule: Q01DX001 (ip), vehicle: saline 100 % of control and 102 % of control | dose: 150.0 mg/kg/injection, schedule: Q01DX001 (ip), vehicle: saline 105 % of control | dose: 300.0 mg/kg/injection, schedule: Q01DX001 (ip), vehicle: saline 94 % of control and 91 % of control

CN(CCO)C(=O)/C=C/c1ccccc1
inactive: dose: 50.0 mg/kg/injection, schedule: Q01DX009 (ip), vehicle: saline 100 % of control | dose: 100.0 mg/kg/injection, schedule: Q01DX009 (ip), vehicle: saline 94 % of control | dose: 200.0 mg/kg/injection, schedule: Q01DX009 (ip), vehicle: saline 92 % of control

Cc1cc2c([N+](=O)[O-])c3cccnn3c2nn1
inactive: dose: 50.0 mg/kg/injection, schedule: Q04DX002 (ip), vehicle: Klucel (hydroxypropylcellulose) (HPC) 114 % of control | dose: 100.0 mg/kg/injection, schedule: Q04DX002 (ip), vehicle: Klucel (hydroxypropylcellulose) (HPC) 111 % of control | dose: 200.0 mg/kg/injection, schedule: Q04DX002 (ip), vehicle: Klucel (hydroxypropylcellulose) (HPC) 91 % of control

CCCC(C)Cc1ccc(C(C)=O)cc1 (stereo not drawn)
inactive: dose: 50.0 mg/kg/injection, schedule: Q01DX009 (ip), vehicle: Klucel (hydroxypropylcellulose) (HPC) 101 % of control | [1] 106 % of control | [2] 104 % of control | [3] 89 % of control | [4] 105 % of control | [5] 105 % of control

Cc1ccc(NC(=O)SCc2ccccc2)c([N+](=O)[O-])c1
inactive: [1] 98 % of control | [3] 100 % of control | dose: 400.0 mg/kg/injection, schedule: Q01DX009 (ip), vehicle: Klucel (hydroxypropylcellulose) (HPC) 93 % of control

O=C(O)CSC(=S)SCC(=O)O
inactive: [1] 100 % of control | [2] 100 % of control | [3] 97 % of control | [4] 105 % of control | [5] 101 % of control

O=C(Sc1ccccc1)N(c1ccccc1)c1ccccc1
inactive: dose: 100.0 mg/kg/injection, schedule: Q04DX002 (ip), vehicle: gum acacia 117 % of control | dose: 200.0 mg/kg/injection, schedule: Q04DX002 (ip), vehicle: gum acacia 101 % of control | dose: 400.0 mg/kg/injection, schedule: Q04DX002 (ip), vehicle: gum acacia 96 % of control

COc1cc(C=Nc2cc(Cl)c(OC)c(Cl)c2)ccc1N(CCCl)CCCl
inactive: dose: 26.0 mg/kg/injection, schedule: Q01DX001 (ip), vehicle: carboxymethylcellulose (CMC) 121 % of control | dose: 26.0 mg/kg/injection, schedule: Q01DX009 (ip), vehicle: carboxymethylcellulose (CMC) 120 % of control | dose: 29.0 mg/kg/injection, schedule: Q01DX001 (ip), vehicle: carboxymethylcellulose (CMC) 118 % of control | dose: 40.0 mg/kg/injection, schedule: Q01DX009 (ip), vehicle: carboxymethylcellulose (CMC) 94 % of control | dose: 44.0 mg/kg/injection, schedule: Q01DX001 (ip), vehicle: carboxymethylcellulose (CMC) 114 % of control | dose: 150.0 mg/kg/injection, schedule: Q01DX001 (ip), vehicle: carboxymethylcellulose (CMC) 121 % of control | dose: 225.0 mg/kg/injection, schedule: Q01DX001 (ip), vehicle: carboxymethylcellulose (CMC) 122 % of control | dose: 300.0 mg/kg/injection, schedule: Q01DX001 (ip), vehicle: carboxymethylcellulose (CMC) 122 % of control

Cc1cc(N=Nc2ccc(N(C)C)cc2)cc(C)[n+]1[O-]
inactive: [1] 104 % of control | [2] 100 % of control | [3] 98 % of control | [4] 95 % of control | [5] 88 % of control

CCc1ccc(N=Nc2c(F)c(F)c(N(C)C)c(F)c2F)cc1
inactive: dose: 100.0 mg/kg/injection, schedule: Q01DX001 (ip), vehicle: carboxymethylcellulose (CMC) 102 % of control | dose: 200.0 mg/kg/injection, schedule: Q01DX001 (ip), vehicle: carboxymethylcellulose (CMC) 100 % of control | dose: 400.0 mg/kg/injection, schedule: Q01DX001 (ip), vehicle: carboxymethylcellulose (CMC) 100 % of control

CC12CC(O)C(C=C1c1ccccc1)C2(C)C (stereo not drawn)
inactive: dose: 100.0 mg/kg/injection, schedule: Q04DX002 (ip), vehicle: other 86 % of control | dose: 200.0 mg/kg/injection, schedule: Q04DX002 (ip), vehicle: other 93 % of control | dose: 400.0 mg/kg/injection, schedule: Q04DX002 (ip), vehicle: other 90 % of control

Nc1ccc(CCNS(=O)(=O)c2ccc(S(=O)(=O)F)cc2)cc1
inactive: dose: 100.0 mg/kg/injection, schedule: Q01DX001 (ip), vehicle: saline 103 % of control | dose: 200.0 mg/kg/injection, schedule: Q01DX001 (ip), vehicle: saline 97 % of control | dose: 400.0 mg/kg/injection, schedule: Q01DX001 (ip), vehicle: saline 107 % of control
